Assay results from patent US7723328B2, “Methods of facilitating cell survival using neurotrophin mimetics” (The University of North Carolina at Chapel Hill, priority 2005, dated 2010).
“Also recorded” adds a separate entry of the source. One block for each molecule: values may come before it.

Legend:
[1] = test system: E16-17 mouse hippocampal neurons; assay: Hippocampal neuron survival (morphology plus MTT conversion); type: cell-based; details: for neurotrophic activity (neuron survival response): 48 h, counts normalized to 25 ng/ml BDNF or baseline, up to 5 nM
Protocol: (§1) Hippocampal neurons were prepared from E16-17 mouse embryos as previously described (Yang. T. et al. (2003) J Neurosci 23, 3353-3363). […] For studies employing p75^NTR+/+ and p75^NTR−/− neurons, mice carrying a mutation in exon 3 of the p75^NTR gene (Lee, K. F. et al. (1992) Cell 69, 737-749) were bred onto a B6 congenic background (>10 B6 backcrosses).
(§2) After 48 hours in culture, cell survival was assessed as previously described (Longo, F. M., Manthorpe. M., Xie. Y. M., Varon, S. (1997) J Neurosci Res 48, 1-17) using a combination of standard morphological criteria along with visual determination of whether a given cell converted MTT to its blue formazan product. The number of surviving neurons was determined by counting the total number of cells in each well that were both morphologically intact and filed with blue product (Longo F. M., Manthorpe. M., Xie, Y. M., Varon, S. (1997) J Neurosci Res 48, 1-17). For each neurotrophin or compound concentration, duplicate wells were counted and the resulting values averaged. Activity of each compound was confirmed by blinded counts. Counts were normalized to survival achieved with 25 ng/ml BDNF or to baseline survival. Fitting of dose-responsive curves was performed with Sigmaplot obtained from SYSTAT Software Inc. (Richmond, Calif., United States of America).

chicken DRG neuronal = assay: Chicken DRG neuronal survival assay; type: cell-based; details: preliminary screening
p75^NTR-Fc = biological target: T1, p75^NTR-Fc (Homo sapiens, UniProt P08138); assay: NGF/p75NTR-Fc binding by NGF ELISA, Gaddum/Schild fit
T1 construct: purchased R&D Systems
Protocol: (§3) Briefly, 96-well plates were incubated with 0.1 pmol (at 1 nM) of p75/Fc or TrkA/Fc recombinant protein obtained from R&D System (Minneapolis, Minn., United States of America) overnight at 4° C. followed by incubation with blocking buffer for 1 hour at room temperature. […] Plates were then washed five times with Tris-buffered saline (TBS) containing 0.05% Tween-20 and incubated with anti-NGF rabbit polyclonal antibody overnight at 4° C. Following five washes with TBS, wells were incubated for 2.5 hours at room temperature with anti-rabbit IgG HRP conjugate and washed five times. 3,3′,5,5′-tetramethyl-benzidine substrate was added and the optical density measured at 450 nm.
A regression analysis of NGF-p75^NTR binding in the presence of the p75-binding compounds was performed. The data was fit using the Nonlinear Regression module of Sigmaplot, to a modification of the Gaddum/Schild equation (adapted from Motulsky, H. J., and Christopoulos. A. (2003) A Practical Guide to Curve Fitting, 2nd edn. (San Diego, Calif., GraphPad Software, Inc.): […]

TrkA-Fc = assay: NGF/TrkA-Fc binding by NGF ELISA; details: up to 10,000 nM compound
Protocol: as §3

hippocampal neurons [2] = assay: Hippocampal neuron survival with p75NTR antisera (antibody inhibition); type: cell-based, mouse; details: antiserum 1:100, 48 h
Protocol: as §1, §2
(§4) For all studies applying signaling inhibitors, p75^NTR antibodies or p75^NTR−/− neurons, survival was assessed at 48 hours.

p75^NTR−/− cells = assay: Survival of p75NTR+/+ versus p75NTR-/- hippocampal neurons; type: cell-based, mouse; details: neurotrophins 1.8 nM, compounds 5 nM
Protocol: as §1, §2, §4

NFκB-p65 = NFκB-p65 phosphorylation western blot in hippocampal cultures; type: cell-based, mouse
Protocol: (§5) For assays of Trk, AKT, NFκB, and ERK activation, hippocampal neurons derived from E16-17 mice were cultured in poly-L-lysine coated six-well plates (Corning, Inc., Corning, N.Y., United States of America) in DMEM containing 10% FBS, followed by incubation in serum-free DMEM for 2 hours before addition of neurotrophins or compounds. At the indicated time points, neurons were harvested in lysis buffer consisting of: 20 mM Tris, pH 8.0, 137 mM NaCl, 1% Igepal CA-630, 10% glycerol, 1 mM PMSF, 10 μg/ml aprotinin, 1 μg/ml leupeptin, 500 μM orthovanadate (Zhou, J., Valletta, J. S., Grimes, M. L., Mobley, W. C. (1995) J Neurochem 65, 1146-1156).
(§6) Lysates were centrifuged, the supernatant collected, and protein concentrations determined using the BCA Protein Assay Reagent obtained from Pierce (Rockford, Ill., United States of America). Western blots were performed as described previously (Yang, T. et al. (2003) J Neurosci 23, 3353-3363). Western blot signals were detected using the ECL Chemiluminescence System obtained by Amersham (Piscataway, N.J., United States of America) (Yang, T. et al. (2003) J Neurosci 23, 3353-3363).

AKT = AKT activation western blot in hippocampal cultures; type: cell-based, mouse
Protocol: as §5, §6

hippocampal neurons [3] = assay: Hippocampal neuron survival with signaling pathway inhibitors; type: cell-based, mouse; details: BDNF/NGF 25 ng/ml, compounds 5 nM, 48 h; for effect of PD98059 (ERK inhibitor) on survival promoted by the substance: PD98059 50 μM
Protocol: as §1, §2, §4

mature oligodendrocytes = assay: Oligodendrocyte cell death assay (MBP/TUNEL) with or without proNGF; type: cell-based, rat; details: for promotion of oligodendrocyte cell death by compound alone: absence of proNGF
Protocol: Cortical oligondendrocytes from rat pups were prepared as previously described (Yoon et al. (1998) J Neurosci 18, 3273-3281, Harrington, A. W., Kim, J. Y., Yoon, S. O. (2002) J Neurosci 22, 156-166). Cells were treated with recombinant, cleavage-resistant proNGF at 0.05 nM (2.8 ng/ml). Controls were treated with equivalent volumes of proNGF purification buffer containing 350 mM imidazole. 24 hours after treatment, the cells were fixed and processed for MBP and TUNEL staining as previously described (Beattie, M. S. et al. (2002) Neuron 36, 375-386). 200-250 cells were counted per well, for a minimum of 600 cells per experimental condition.

p75^NTR = biological target: T2, p75^NTR (Homo sapiens, UniProt P08138); assay: proNGF binding to p75NTR by ELISA; details: 100 ng/ml proNGF
T2 construct: purchased R&D Systems
Protocol: as §3

E17 hippocampal neurons = assay: Aβ-induced death of hippocampal neurons; type: cell-based; details: Aβ1-42 10 μM; for protection against Aβ1-42-induced death: NGF at 100 pg/ml
Protocol: Using previously well established protocols, Aβ was preincubated for 3 days in water to allow formation of oligomers. E17 hippocampal neurons were incubated for 5 days to allow for maturation prior to addition of Aβ with test compounds.

[4] = biological target: T3, p75^NTR-expressing 3T3 cells (Homo sapiens, UniProt P08138); assay: p75NTR antibody (Ab 9651) competition on 3T3 cells, western blot; type: binding; details: 100 nM compound, 90 min, 4° C.
T3 construct: host or cells: NIH3T3 fibroblasts
T3 sequence (P08138 29-427): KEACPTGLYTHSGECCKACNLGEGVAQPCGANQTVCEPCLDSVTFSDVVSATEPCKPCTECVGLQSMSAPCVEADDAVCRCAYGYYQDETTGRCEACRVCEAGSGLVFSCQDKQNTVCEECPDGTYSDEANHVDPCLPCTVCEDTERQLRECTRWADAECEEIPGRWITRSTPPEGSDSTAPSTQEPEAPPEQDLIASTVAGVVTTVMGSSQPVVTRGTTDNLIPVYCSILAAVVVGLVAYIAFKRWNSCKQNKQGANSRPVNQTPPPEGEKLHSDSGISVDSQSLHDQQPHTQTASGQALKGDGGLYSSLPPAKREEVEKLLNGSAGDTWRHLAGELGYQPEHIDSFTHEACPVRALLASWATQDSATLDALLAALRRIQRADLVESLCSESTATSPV
Protocol: NIH3T3 fibroblasts expressing either null vector or p75^NTR (Huang, C. S. et al. (1999) J Biol Chem 274, 36707-36714) were obtained from Dr. William Mobley (Stanford University, Calif., United States of America). Cells were grown in monolayers, harvested in PBS with 2 mM EDTA, pelleted, and resuspended in ice-cold DMEM HEPES with 1 mg/ml BSA. 6-9×10^6 cells from one confluent 6-well plate were used for each experimental point.
For binding analysis, p75^NTR antibody (1:100) was allowed to bind in the presence or absence of 100 nM p75-binding compounds for 90 minutes at 4° C. with gentle rotation, followed by four washes in PBS. The final cell pellet was resuspended in lysis buffer.
Western blots were performed as described above. To detect the presence of p75^NTR antibody, blots were probed with horseradish peroxidase-linked goat anti-rabbit IgG obtained from Amersham/Pharmacia Biotech (Piscataway, N.J., United States of America). Signals were detected by the ECL chemiluminescence system obtained from Amersham Biosciences (Piscataway, […]., United States of America). To control for variation in protein loading, the blot was stripped and reprobed with β-actin monoclonal antibody obtained from Sigma (St. Louis, Mo., United States of America).

TrkB = biological target: T4, TrkB (Mus musculus, UniProt P15209); assay: Trk Y490 phosphorylation western blot in hippocampal neuron cultures; type: cell-based; details: 10 or 30 minutes
T4 construct: endogenous in cells; host or cells: primary hippocampal neurons from E16-17 mouse embryos
Protocol: as §5, §6

ERK42 = ERK42 activation western blot in hippocampal cultures; type: cell-based, mouse; details: compounds 20 nM, BDNF/NGF 50 ng/ml; 10 and 30 min
Protocol: as §5, §6

[5] = compounds 20 nM, BDNF/NGF 50 ng/ml, 10 and 30 min

T1 sequence (P08138 with tags, fused parts or gaps limits assumed): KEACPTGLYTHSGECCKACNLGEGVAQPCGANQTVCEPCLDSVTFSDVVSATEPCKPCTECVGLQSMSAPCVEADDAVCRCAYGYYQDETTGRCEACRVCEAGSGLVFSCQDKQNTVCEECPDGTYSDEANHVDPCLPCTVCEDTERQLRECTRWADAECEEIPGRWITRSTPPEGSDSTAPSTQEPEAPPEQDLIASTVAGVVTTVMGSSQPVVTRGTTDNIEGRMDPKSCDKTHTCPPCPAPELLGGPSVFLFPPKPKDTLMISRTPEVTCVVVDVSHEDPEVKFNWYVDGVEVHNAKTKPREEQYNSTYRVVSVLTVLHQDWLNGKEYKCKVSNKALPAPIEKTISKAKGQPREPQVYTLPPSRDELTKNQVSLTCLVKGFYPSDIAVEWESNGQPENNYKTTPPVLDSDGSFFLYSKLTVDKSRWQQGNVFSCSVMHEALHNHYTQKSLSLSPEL
T2 sequence (P08138 with tags, fused parts or gaps limits assumed): as above
T4 sequence (P15209 32-821): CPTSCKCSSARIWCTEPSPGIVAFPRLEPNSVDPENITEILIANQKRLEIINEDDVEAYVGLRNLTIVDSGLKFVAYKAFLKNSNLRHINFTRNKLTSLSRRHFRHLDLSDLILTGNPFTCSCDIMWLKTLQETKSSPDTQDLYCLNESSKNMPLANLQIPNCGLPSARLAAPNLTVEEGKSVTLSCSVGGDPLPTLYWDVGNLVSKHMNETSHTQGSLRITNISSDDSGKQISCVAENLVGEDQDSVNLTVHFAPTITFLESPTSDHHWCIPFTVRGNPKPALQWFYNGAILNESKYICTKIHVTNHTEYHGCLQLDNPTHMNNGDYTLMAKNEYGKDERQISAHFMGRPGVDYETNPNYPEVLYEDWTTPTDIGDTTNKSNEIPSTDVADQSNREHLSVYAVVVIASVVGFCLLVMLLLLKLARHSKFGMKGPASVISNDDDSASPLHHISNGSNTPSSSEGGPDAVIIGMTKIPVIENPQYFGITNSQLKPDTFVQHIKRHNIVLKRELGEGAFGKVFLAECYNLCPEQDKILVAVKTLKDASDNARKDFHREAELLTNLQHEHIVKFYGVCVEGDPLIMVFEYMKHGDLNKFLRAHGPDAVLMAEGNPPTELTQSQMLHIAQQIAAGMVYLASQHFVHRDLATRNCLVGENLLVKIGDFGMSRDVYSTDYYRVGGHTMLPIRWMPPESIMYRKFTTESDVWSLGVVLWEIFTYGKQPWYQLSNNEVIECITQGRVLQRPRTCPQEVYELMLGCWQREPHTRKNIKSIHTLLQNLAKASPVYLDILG

Molecule: NCCNc1ccc([N+](=O)O)c(N2CCCCC2)c1 [Compound 1]
- neurotrophic activity (neuron survival response) [1]: active
- activity in DRG neuronal survival (chicken DRG neuronal): active

- compound concentration at which binding curve differs from 0 nM curve (P<0.0001) (p75^NTR-Fc; ANOVA with post-hoc Bonferroni/Dunn): ≥ 125 nM
- Schild coefficient (p75^NTR-Fc; Gaddum-Schild fit): 0.26 +/−0.01
- shift of the NGF/p75NTR-Fc binding curve (p75^NTR-Fc; increasing compound concentrations): significantly to the right
- proNGF ELISA signal versus proNGF alone (p75^NTR; P<0.01): significantly less than proNGF alone
- decrement of proNGF binding to p75NTR (p75^NTR; at the highest concentration (range 1500 nM to 10,000 nM)): approximately 30%
Molecule: CN(C)CCCNC(=O)Cn1cnc2c1c(=O)n(C)c(=O)n2C [Compound 3]
- additive effect on survival with NGF ([1]; 5 nM compound along with 50 ng/ml NGF): no additive effect on survival
- effect on NGF binding to TrkA-Fc (TrkA-Fc): did not affect; also recorded: no compound effects up to 10,000 nM
- effect of Ab 9651 on promotion of neuron survival by the substance (hippocampal neurons [2]): completely blocked; also recorded: completely inhibits
- survival versus CM in the presence of Ab 9651 (hippocampal neurons [2]): not significant
- effect of p75NTR-deficiency on promotion of neuron survival by the substance (p75^NTR−/− cells): completely inhibits
- increase in NFκB-p65 phosphorylation (NFκB-p65; 20 nM): approximately 1.5 fold
- onset of AKT activation (AKT; 20 nM, relative to NGF): slower than that of NGF
- effect of PD98059 (ERK inhibitor) on survival promoted by the substance (hippocampal neurons [3]): no significant decrease
- effect of SN50 (NFκB translocation inhibitor) on survival promoted by the substance (hippocampal neurons [3]; SN50 2.5 μg/ml): significantly reduced
- inhibition of proNGF-induced oligodendrocyte death (mature oligodendrocytes; 2.8 ng/ml (0.05 nM) proNGF, 24 h): significantly inhibited; also recorded: blocked cell death
- promotion of oligodendrocyte cell death by compound alone (mature oligodendrocytes; 24 h): did not promote cell death
- protection against Aβ1-42-induced death (E17 hippocampal neurons): blocks Aβ-induced death with a dose-response effect
- EC50 (E17 hippocampal neurons; Hippocampal neuron, read-out: EC50 for blocking Aβ-induced death): ~10 nM

- effect on NGF binding to TrkA-Fc (TrkA-Fc): no significant effect up to 10,000 nM
- displacement of anti-p75NTR Ab 9651 [4]: no effect
Molecule: CCN(CC)CCCNC(=O)Cn1cnc2c1c(=O)n(C)c(=O)n2C [Compound 5]
- neurotrophic activity (neuron survival response) [1]: little or no neurotrophic activity; also recorded: no response
- survival versus CM in the presence of Ab 9651 (hippocampal neurons [2]): not significant
- NFκB-p65 activation (NFκB-p65; [5]): did not induce
- oligodendrocyte survival with proNGF at 10 nM compound (mature oligodendrocytes; 10 nM compound, proNGF present): appeared to decrease survival
- promotion of oligodendrocyte cell death by compound alone (mature oligodendrocytes; 24 h): did not promote cell death
- protection against Aβ1-42-induced death (E17 hippocampal neurons): failed to block

Molecule: N=C(N)NC(=N)NCCNC(=N)NC(=N)N [Compound 7]
- neurotrophic activity (neuron survival response) [1]: active
- activity in DRG neuronal survival (chicken DRG neuronal): active

B1: BDNF: brain-derived neurotrophic factor from Sigma-Aldrich (protein, UniProt P23560 19-247, looked up)
Neurotrophic factor BDNF …: APMKEANIRGQGGLAYPGVRTHGTLESVNGPKAGSRGLTSLADTFEHVIEELLDEDQKVRPNEENNKDADLYTSRVMLSSQVPLEPPLLFLLEEYKNYLDAANMSMRVRRHSDPARRGELSVCDSISEWVTAADKKTAVDMSGGTVTVLEKVPVSKGQLKQYFYETKCNPMGYTKEGCRGIDKRHWNSQCRTTQSYVRALTMDSKKRIGWRFIRIDTSCVCTLTIKRGR
- effect of Ab 9651 on promotion of neuron survival by the substance (hippocampal neurons [2]): partially blocked; also recorded: partially inhibits
- survival versus CM in the presence of Ab 9651 (hippocampal neurons [2]): significantly greater than CM+Ab 9651
- effect of p75NTR-deficiency on promotion of neuron survival by the substance (p75^NTR−/− cells): partial responsiveness; also recorded: partially inhibits
- survival in p75NTR−/− cultures, comparison of treatments (p75^NTR−/− cells): greater survival than NGF
- TrkB activation (Trk Y490 phosphorylation) (TrkB): robust Trk activation; also recorded: activated TrkB
- AKT activation (AKT; [5]): substantially greater response
- ERK42 activation (ERK42): greater with BDNF and NGF treatment than with the p75-binding compounds; also recorded: prolonged activation
- effect of PD98059 (ERK inhibitor) on survival promoted by the substance (hippocampal neurons [3]): significantly decreased; also recorded: small effects
